In patent US9663528B2, “Substituted 1,2,3,4,6,8,12,12a-octahydro-1,4-methanodipyrido[1,2-a:1',2'-d]pyrazines and methods for treating viral infections” (priority 2012, dated 2017):
Like-named read-outs stand apart in the source and are kept apart here.

Legend:
[1] = test system: HIV-IIIb; assay: Antiviral assay in MT4 cells; type: cell-based; conditions: MT4 cells infected with HIV-IIIb, 5 days incubation; read-out: EC50 nM in MT-4
Method: For the antiviral assay utilizing MT4 cells, 0.4 μL of […] test concentration of 3-fold serially diluted compound in DMSO was added to 40 μL of cell growth medium (RPMI 1640, 10% FBS, 1% penicilline/Streptomycine, 1% L-Glutamine, 1% HEPES) in each well of 384-well assay plates (10 concentrations) in quidruplicate.
1 mL aliquots of 2×10^6 MT4 cells are pre-infected for 1 and 3 hours respectively at 37° C. with 25 μL (MT4) or of either cell growth medium (mock-infected) or a fresh 1:250 dilution of an HIV-IIIb concentrated ABI stock (0.004 m.o.i. for MT4 cells). Infected and uninfected cells are diluted in cell growth medium and 35 μL of 2000 (for MT4) cells is added to each well of the assay plates.
Assay plates were then incubated in a 37° C. incubator. After 5 days of incubation, 25 μL of 2× concentrated CellTiter-Glo™ Reagent (catalog #G7573, Promega Biosciences, Inc., Madison, Wis.) was added to each well of the assay plate. Cell lysis was carried out by incubating at room temperature for 2-3 minutes, and then chemiluminescence was read using the Envision reader (PerkinElmer).

[2] = test system: MT4 cells; assay: in vitro
[3] = target: PXR (Homo sapiens (Human), UniProt O75469); assay: Human PXR activation assay (luciferase reporter gene assay, DPX2 cells); type: cell-based; conditions: 15 μM; relative to maximum fold induction by 10 or 20 μM rifampicin; DPX2 cells, 24 hours
Chain of PXR (O75469 whole entry): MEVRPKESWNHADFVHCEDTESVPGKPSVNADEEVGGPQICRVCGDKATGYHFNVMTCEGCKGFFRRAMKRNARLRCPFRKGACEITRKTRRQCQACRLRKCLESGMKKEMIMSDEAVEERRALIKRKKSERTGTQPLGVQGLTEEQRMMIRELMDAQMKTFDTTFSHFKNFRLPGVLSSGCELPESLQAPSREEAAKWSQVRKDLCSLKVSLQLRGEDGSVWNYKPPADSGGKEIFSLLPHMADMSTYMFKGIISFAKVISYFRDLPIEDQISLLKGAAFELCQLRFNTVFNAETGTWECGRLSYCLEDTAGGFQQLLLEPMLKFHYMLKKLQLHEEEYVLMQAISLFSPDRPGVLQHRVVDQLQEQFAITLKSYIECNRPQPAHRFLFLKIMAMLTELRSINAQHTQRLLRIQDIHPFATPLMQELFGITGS
Method: A stably transformed tumor cell line (DPX2) was plated on 96-well microtiter plates. DPX2 cells harbor the human PXR gene (NR112) and a luciferase reporter gene linked to two promoters identified in the human CYP3A4 gene, namely XREM and PXRE. […] The number of viable cells was determined and the reporter gene activity was assessed. Positive control: […]

| SMILES | EC50 [1] | CC50 ([2]; human, 5 days) | CC50 [2] | % Emax at 15 μM [3] |
| --- | --- | --- | --- | --- |
| O=C(NC1(c2ccc(F)cc2F)CC1)c1cn2c(c(O)c1=O)C(=O)N1[C@@H]3CC[C@@H](C3)O[C@H]1C2 [Compound 30, (2S,5R,13aS)-N-(1-(2,4-difluorophenyl)cyclopropyl)-8-hydroxy-7,9-dioxo-2,3,4,5,7,9,13,13a-octahydro-2,5-methanopyrido[1′,2′:4,5]pyrazino[2,1-b][1,3]oxazepine-10-carboxamide] | 4 nM | 6.83 µM | – | – |
| O=C(NCc1c(F)cc(F)cc1F)c1cn2c(c(O)c1=O)C(=O)N1[C@H]3CC[C@H](CC3)[C@H]1C2 [Compound 101, (11R,4R,12aS)-7-hydroxy-6,8-dioxo-N-(2,4,6-trifluorobenzyl)-1,2,3,4,6,8,12,12a-octahydro-1,4-ethanodipyrido[1,2-a:1′,2′-d]pyrazine-9-carboxamide] | 2.1 nM | – | 11.6 µM | – |
| O=C(NCc1c(F)cc(F)cc1F)c1cn2c(c(O)c1=O)C(=O)N1[C@H]3CC[C@H](CC3)[C@@H]1C2 [Compound 102, (1S,4S,12aR)-7-hydroxy-6,8-dioxo-N-(2,4,6-trifluorobenzyl)-1,2,3,4,6,8,12,12a-octahydro-1,4-ethanodipyrido[1,2-a:1′,2′-d]pyrazine-9-carboxamide] | 2.3 nM | – | 12 µM | 123% |
